Experiment [1] concerns murine hematopoietic cell line FL5.12. Briefly: Viability of FL5.12 cells by vital dye exclusion. The format is cell-based. Conditions: FL5.12 cells, 48 h, vital dye exclusion; n ≥3; read-out: IC50 (μM) [95% CI]. As to the method: (§1) Cell culture studies: FL5.12 cells (murine hematopoetic cells originally obtained from Craig Thompson, Memorial Sloan Kettering Cancer Center) were maintained at 0.1-0.5 million/ml in RPMI 1640 (Mediatech) supplemented with 10% fetal calf serum (FCS, Sigma-Aldrich), 10 mM Hepes (Mediatech), 500 pg/ml recombinant IL-3 (cat #575502, Biolegend), 55 μM β-mercaptoethanol (Sigma-Aldrich), 2 mM L-glutamine (Mediatech), and antibiotics. Cells were screened for Mycoplasma every 3 months using the Look-Out Mycoplasma PCR Detection kit (cat #MP0035, Sigma).
IC50 values were calculated using GraphPad Prism (GraphPad Software, Inc, La Jolla, Calif.).

A further experiment concerns CD98 (4F2hc, SLC3A2). The experiment can be described thus: Surface CD98 nutrient transporter down-regulation by flow cytometry. The format is cell-based, murine. Conditions: FL5.12 cells.
From the text: (§2) In an exemplified study, nutrient transporter down-regulation was monitored by quantifying surface levels of the amino acid transporter-associated protein, CD98, by flow cytometry. Vacuolation was scored in a range from 0 to […], as determined by a vacuolation assay described in greater detail in the Materials and Methods section below.
as §1
Nutrient transporter expression: Surface CD98 (4F2hc, SLC3A2) expression was measured at 3 h using phycoerythrin (PE)-conjugated rat anti-mouse CD98 antibody (Biolegend, cat #128208); analysis was restricted to viable cells. PE conjugated Rat IgG2a, k (cat #400508, Biolegend) was used as an isotype control. For staining, 200,000 cells were pelleted, re-suspended in 100 μl FACS block (PBS with 10% FCS and 0.05% NaN3) containing 0.25 μL anti-CD98 antibody, incubated on ice for 30 min, washed twice with 1 ml FACS wash (PBS containing 2% FCS and 0.05% NaN3), and analyzed on a BD LSR II flow cytometer. Data was processed with FlowJo software (Treestar).
(A flow cytometer gives signals particle by particle.)

A further experiment has as its system FL5.12 cells. Briefly: Vacuolation assay. The experiment is classed as cell-based, murine. Further details: key to Vacuolation score: 0-100 score: (3×%cat3+2×%cat2+1×%cat1)/3; cells graded 0-3 for vacuoles. The following applies: FL5.12 cells. As for the experimental part: as §2
Vacuolation assay: Cells were evaluated at 100× using brightfield microscopy and a Nikon TE2000-S fluorescence microscope equipped with DIC filters. Vacuolation was quantified after a 3 h incubation period in 2.5 μM compound except where otherwise indicated. To calculate a vacuolation score, vacuolation severity in at least 15 individual cells/experiment was assessed qualitatively. Scores were assigned to individual cells as follows: 0=no vacuoles, 1=very small vacuoles, 2=multiple well-defined vacuoles, 3=multiple large vacuoles. To calculate the vacuolation score associated with a compound, the following formula was used: vacuolation score=[(3×% cells in category 3)+(2×% cells in category 2)+(1×% cells in category 1)]/3.
The score is divided by 3 so that a compound with 100% of its cells in category 3 would have a vacuolation score of 100. Three independent experiments were conducted and the vacuolation scores averaged to generate a mean+/−SEM. All cells were scored by one lab member after confirming that a blinded individual scored 5 compounds with similar results.

The next experiment concerns PP2A. The experiment can be described thus: PP2A phosphatase activity. The experiment is classed as biochemical, murine. The following applies: PP2A immunoprecipitated from FL5.12 cell lysates, phosphopeptide dephosphorylation. The source says:
Furthermore, many embodiments of the invention are directed to azacyclic constrained sphingolipid-like molecules inducing internalization of nutrient transporters via a mechanism that activates PP2A. […] Thus, activation of PP2A is very peculiar to certain sphingolipid structures. Activation of PP2A by FTY720 and SH-BC-893 also stimulated vacuolation, and as the PP2A inhibitors calyculin A and SV40 small t antigen, each blocked this effect (FIG. 59C). Of note, YM201636-induced vacuolation was unaffected by PP2A inhibition (FIG. 60B). In addition, inhibiting PP2A restored PIKfyve to the proper location within vacuoles in cells treated with FTY720 or SH-BC-893 (FIG. 57D).
PP2A phosphatase activity. PP2A activity was measured using a PP2A immunoprecipitation phosphatase assay kit (EMD Millipore). Briefly, the catalytic subunit of PP2A was immunoprecipitated from FL5.12 cell lysates with 4 μg anti-PP2A, C subunit. After four washes, the activity of immunoprecipitated PP2A was assessed by dephosphorylation of the phosphopeptide according to the manufacturer's instructions in the presence or absence of C2-ceramide, dihydro-C2-ceramide, FTY720, SH-BC-893, or calyculinA.

In general, IC50 refers to the concentration needed to halve the response being measured.

On to `CCCCCCCCCCCCC/C=C/[C@@H](O)[C@H](CO)NC(C)=O` [Compound 109, C2-ceramide, reference compound], for which the 50% inhibitory concentration (IC50) in experiment [1] was found to be 33 µM. The “concentration required to cause similar transporter loss” value with CD98 (4F2hc, SLC3A2) (CD98 loss) turned out to be 50 µM. In addition, in the experiment on CD98 (4F2hc, SLC3A2) (surface CD98 at 3 h, flow cytometry, mean ± SEM, n ≥3), the “% CD98 down-regulation” value is 47 ± 3%. The compound further showed a Vacuolation score in the experiment on FL5.12 cells (3 h in 2.5 μM compound except where otherwise indicated, mean ± SEM, n ≥3) of 0. The “vacuolation (in words)” value in the experiment on FL5.12 cells (at any dose / highest dose tested) is “did not cause vacuolation”. In addition, the PP2A activation result with PP2A is listed as “activating PP2A”.
